Test results as given in US12600726B2, “Antagonists of the muscarinic acetylcholine receptor M4” (Vanderbilt University, priority 2017, dated 2026).
pIC50: −log10 of the molar value.

Assays:
[1] = target: T1, Human M4 (Homo sapiens, UniProt P08173); assay: mAChR M4 cell-based functional calcium flux assay (human M4/Gqi5/CHO cells); settings: for Emin (human M4): % ACh maximum at 30 μM; for pIC50: decrease of the response to an EC80 concentration of acetylcholine
T1 construct: expressed in transfected cells; host or cells: CHO-K1 (ATCC), stably expressing M4 and Gqi5
T1 sequence (P08173 1-479): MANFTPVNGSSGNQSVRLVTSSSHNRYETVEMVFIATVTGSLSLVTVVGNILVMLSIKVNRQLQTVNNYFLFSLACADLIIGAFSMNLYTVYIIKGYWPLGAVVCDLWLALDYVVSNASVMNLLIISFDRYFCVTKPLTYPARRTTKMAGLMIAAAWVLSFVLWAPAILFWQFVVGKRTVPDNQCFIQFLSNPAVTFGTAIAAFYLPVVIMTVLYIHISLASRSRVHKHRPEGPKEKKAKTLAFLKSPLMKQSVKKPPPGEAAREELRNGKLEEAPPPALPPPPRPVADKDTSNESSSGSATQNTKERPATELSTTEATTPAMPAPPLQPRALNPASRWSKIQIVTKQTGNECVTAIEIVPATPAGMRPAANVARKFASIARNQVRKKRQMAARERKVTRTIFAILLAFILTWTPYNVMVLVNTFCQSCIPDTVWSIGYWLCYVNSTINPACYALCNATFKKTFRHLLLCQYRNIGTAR
Method: (§1) Human, rat, or mouse M4. cDNA, along with the chimeric G protein Gqi5, were transfected into Chinese hamster ovary (CHO-K1) cells purchased from the American Type Culture Collection using Lipofectamine2000. M4/Gqi5/CHO cells were grown in Ham's F-12 medium containing 10% heat-inactivated fetal bovine serum (FBS), 20 mM HEPES, 500 μg/mL G418 sulfate, and 200 μg/mL Hygromycin B.
(§2) For high throughput measurement of agonist-evoked increases in intracellular calcium, CHO-K1 cells stably expressing muscarinic receptors were plated in growth medium lacking G418 and hygromycin at 15,000 cells/20 μL/well in Greiner 384-well black-walled, tissue culture (TC)-treated, clear-bottom plates (VWR). Cells were incubated overnight at 37° C. and 5% CO2. The next day, cells were washed using an ELX 405 (BioTek) with assay buffer; the final volume was then aspirated to 20 μL. Next, 20 μL of a 2.3 μM stock of Fluo-4/acetoxymethyl ester (Invitrogen, Carlsbad, CA), prepared as a 2.3 mM stock in DMSO and mixed in a 1:1 ratio with 10% (w/v) Pluronic F-127 and diluted in assay buffer, was added to the wells and the cell plates were incubated for 50 min at 37° C. and 5% CO2. Dye was removed by washing with the ELX 405 and the final volume was aspirated to 20 μL. Compound master plates were formatted in a 10 point concentration-response curve (CRC) format (1:3 dilutions) in 100% DMSO with a starting concentration of 10 or 1 mM using a BRAVO liquid handler (Agilent). Test compound CRCs were then transferred to daughter plates (240 nL) using the Echo acoustic plate reformatter (Labcyte, Sunnyvale, CA) and then diluted into assay buffer (40 μL) to a 2× stock using a Thermo Fisher Combi (Thermo Fisher Scientific, Waltham, MA).
(§3) Calcium flux was measured using the Functional Drug Screening System (FDSS) 6000 or 7000 (Hamamatsu Corporation, Tokyo, Japan) as an increase in the fluorescent static ratio. Compounds were applied to cells (20 μL, 2×) using the automated system of the FDSS at 2 seconds into the protocol and the data were collected at 1 Hz. At 143 s, 10 μL of an EC20 concentration of the muscarinic receptor agonist acetylcholine was added (5×), followed by the addition of 12 μL of an EC80 concentration of acetylcholine at the 268 s time point (5×). Agonist activity was analyzed as a concentration-dependent increase in calcium mobilization upon compound addition. Positive allosteric modulator activity was analyzed as a concentration-dependent increase in the EC20 acetylcholine response. Antagonist activity was analyzed as a concentration-dependent decrease in the EC80 acetylcholine response; for the purposes of the tables herein, an IC50 (inhibitory concentration 50) was calculated as a concentration-dependent decrease of the response elicited by an EC80 concentration of acetylcholine. Concentration-response curves were generated using a four-parameter logistical equation in XLFit curve fitting software (IDBS, Bridgewater, NJ) for Excel (Microsoft, Redmond, WA) or Prism (GraphPad Software, Inc., San Diego, CA) or the Dotmatics software platform (Dotmatics, Bishop's Stortford, UK).
(§4) Compounds were synthesized as described above. Activity (IC50 and Emin) was determined in the mAChR M4 cell-based functional assay as described above and the data are shown in Table 2 and Table 3. The compound number corresponds to the compound numbers used in the examples and Tables 1 and 1.1.

[2] = target: T2, Rat M4 (Rattus norvegicus, UniProt P08485); assay: mAChR M4 cell-based functional calcium flux assay (rat M4/Gqi5/CHO cells); settings: for Emin (rat M4): % ACh maximum at 30 μM; for pIC50: decrease of the response to an EC80 concentration of acetylcholine
T2 construct: expressed in transfected cells; host or cells: CHO-K1 (ATCC), stably expressing M4 and Gqi5
T2 sequence (P08485 1-478): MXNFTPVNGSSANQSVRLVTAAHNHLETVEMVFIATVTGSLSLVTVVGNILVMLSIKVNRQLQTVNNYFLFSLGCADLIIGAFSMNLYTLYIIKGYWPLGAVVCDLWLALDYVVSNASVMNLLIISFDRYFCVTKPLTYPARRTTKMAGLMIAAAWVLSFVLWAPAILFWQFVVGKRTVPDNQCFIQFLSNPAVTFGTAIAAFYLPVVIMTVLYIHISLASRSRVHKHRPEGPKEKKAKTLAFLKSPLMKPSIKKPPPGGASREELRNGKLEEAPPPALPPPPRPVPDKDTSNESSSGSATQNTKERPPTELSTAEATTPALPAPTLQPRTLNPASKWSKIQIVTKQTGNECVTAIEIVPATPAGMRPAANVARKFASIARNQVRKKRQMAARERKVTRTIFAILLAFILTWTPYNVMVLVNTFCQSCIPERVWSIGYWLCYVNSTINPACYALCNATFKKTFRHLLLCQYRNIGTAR
Method: as §1, §2, §3, §4

| Compound | Emin (human M4) [1] [%] | pIC50 [1] | Emin (rat M4) [2] [%] | IC50 ([2]; cells printed in μM, decrease of the EC80 acetylcholine response) [µM] | pIC50 [2] |
| --- | --- | --- | --- | --- | --- |
| Cc1cnn(C)c1-c1ccc(NCC2CC23CCN(CCC2CCCO2)CC3)nn1 (centres unmarked) [Compound 4, 6-(1,4-dimethyl-1H-pyrazol-5-yl)-N-((6-(2-(tetrahydrofuran-2-yl)ethyl)-6-azaspiro[2.5]octan-1-yl)methyl)pyridazin-3-amine] | – | – | 26.5 | > 10 | – |
| Cc1ccc(/C=C/c2ccc(NCC3CC34CCN(CCC(C)(C)C)CC4)nn2)cc1 (centres unmarked) [Compound 92, N-[[6-(3,3-dimethylbutyl)-6-azaspiro[2.5]octan-2-yl]methyl]-6-[(E)-2-(p-tolyl)vinyl]pyridazin-3-amine] | – | – | 4 | – | 6.00 |
| Cc1nn(C)cc1-c1nnc(NCC2CC23CCN(CC2CCCCC2)CC3)c2ccccc12 (centres unmarked) [Compound 94, N-[[6-(cyclohexylmethyl)-6-azaspiro[2.5]octan-2-yl]methyl]-4-(1,3-dimethylpyrazol-4-yl)phthalazin-1-amine] | 5 | 7.79 | – | – | – |
| CC(C)(C)/C=C/c1ccc(NCC2CC23CCN(CCC(C)(C)C)CC3)nn1 (centres unmarked) [Compound 91, 6-[(E)-3,3-dimethylbut-1-enyl]-N-[[6-(3,3-dimethylbutyl)-6-azaspiro[2.5]octan-2-yl]methyl]pyridazin-3-amine] | – | – | 5 | – | 6.39 |
| Cc1nn(C)cc1-c1ccc(NCC2CC23CCN(CC(C)C(C)(C)C)CC3)nn1 (centres unmarked) [Compound 10, 6-(1,3-dimethylpyrazol-4-yl)-N-[[6-(2,3,3-trimethylbutyl)-6-azaspiro[2.5]octan-2-yl]methyl]pyridazin-3-amine] | – | – | 3.57 | – | 7.32 |
| c1cc(N2CCOCC2)nnc1NCC1CC12CCN(CC1CCOCC1)CC2 (centres unmarked) [Compound 85, 6-morpholino-N-[[6-(tetrahydropyran-4-ylmethyl)-6-azaspiro[2.5]octan-2-yl]methyl]pyridazin-3-amine] | 10 | 5.92 | – | – | – |
| Cc1nn(C)cc1-c1ccc(NCC2CC23CCN(CC2CC4C=CC2C4)CC3)nn1 (centres unmarked) [Compound 9, N-[[6-(5-bicyclo[2.2.1]hept-2-enylmethyl)-6-azaspiro[2.5]octan-2-yl]methyl]-6-(1,3-dimethylpyrazol-4-yl)pyridazin-3-amine] | – | – | 3.98 | – | 7.92 |
| CC(C)(C)CCN1CCC2(CC1)CC2COc1ccc(-c2cc(F)ccc2Cl)nn1 (centres unmarked) [Compound 77, 1-(((6-(2-chloro-5-fluorophenyl)pyridazin-3-yl)oxy)methyl)-6-(3,3-dimethylbutyl)-6-azaspiro[2.5]octane] | – | – | 3 | – | 6.54 |
| Cc1nn(C)cc1-c1nnc(NCC2CC23CCN(CC2CCOCC2)CC3)c2ccccc12 (centres unmarked) [Compound 93, 4-(1,3-dimethylpyrazol-4-yl)-N-[[6-(tetrahydropyran-4-ylmethyl)-6-azaspiro[2.5]octan-2-yl]methyl]phthalazin-1-amine] | 9 | 8.34 | – | – | – |

Other lines, results leading:

| Emin (human M4) [1] [%] | pIC50 [1] | Emin (rat M4) [2] [%] | IC50 ([2]; cells printed in μM, decrease of the EC80 acetylcholine response) [µM] | pIC50 [2] | Compound |
| --- | --- | --- | --- | --- | --- |
| 4 | 6.95 | – | – | – | CC(=O)Nc1ccc(-c2ccc(NC[C@H]3CC34CCN(CC3CCCCC3)CC4)nn2)cc1 [Compound 125, N-[4-[6-[[(2S)-6-(cyclohexylmethyl)-6-azaspiro[2.5]octan-2-yl]methylamino]pyridazin-3-yl]phenyl]acetamide] |
| 5 | 8.59 | – | – | – | Cc1nn(C)cc1-c1nnc(NCC2CC23CCN(CCC(C)(C)C)CC3)c2ccccc12 (centres unmarked) [Compound 95, N-[[6-(3,3-dimethylbutyl)-6-azaspiro[2.5]octan-2-yl]methyl]-4-(1,3-dimethylpyrazol-4-yl)phthalazin-1-amine] |
| 3 | 7.05 | – | – | – | Fc1ccc(CN2CCC3(CC2)CC3CNc2ccc(-c3cc(F)ccc3Cl)nn2)cc1 (centres unmarked) [Compound 99, 6-(2-chloro-5-fluoro-phenyl)-N-[[6-[(4-fluorophenyl)methyl]-6-azaspiro[2.5]octan-2-yl]methyl]pyridazin-3-amine] |
| 2 | 7.05 | – | – | – | Fc1ccc(Cl)c(-c2ccc(NCC3CC34CCN(Cc3ccccc3F)CC4)nn2)c1 (centres unmarked) [Compound 100, 6-(2-chloro-5-fluoro-phenyl)-N-[[6-[(2-fluorophenyl)methyl]-6-azaspiro[2.5]octan-2-yl]methyl]pyridazin-3-amine] |
| 3 | 7.16 | – | – | – | Fc1ccc(Cl)c(-c2ccc(NCC3CC34CCN(Cc3ccccc3)CC4)nn2)c1 (centres unmarked) [Compound 101, N-[(6-benzyl-6-azaspiro[2.5]octan-2-yl)methyl]-6-(2-chloro-5-fluoro-phenyl)pyridazin-3-amine] |
| 5 | 8.53 | – | – | – | Cc1nn(C)cc1-c1nnc(NCC2CC23CCN(CC2CC4C=CC2C4)CC3)c2ccccc12 (centres unmarked) [Compound 96, N-[[6-(5-bicyclo[2.2.1]hept-2-enylmethyl)-6-azaspiro[2.5]octan-2-yl]methyl]-4-(1,3-dimethylpyrazol-4-yl)phthalazin-1-amine] |
| 2 | 7.05 | – | – | – | Fc1ccc(Cl)c(-c2ccc(NC[C@@H]3CC34CCN(Cc3ccccn3)CC4)nn2)c1 [Compound 113, 6-(2-chloro-5-fluoro-phenyl)-N-[[(2R)-6-(2-pyridylmethyl)-6-azaspiro[2.5]octan-2-yl]methyl]pyridazin-3-amine] |
| 5 | 6.28 | – | – | – | N#Cc1ccccc1CN1CCC2(CC1)CC2CNc1ccc(-c2cc(F)ccc2Cl)nn1 (centres unmarked) [Compound 98, 2-[[2-[[[6-(2-chloro-5-fluoro-phenyl)pyridazin-3-yl]amino]methyl]-6-azaspiro[2.5]octan-6-yl]methyl]benzonitrile] |
| 3 | 7.08 | – | – | – | Fc1cccc(CN2CCC3(CC2)CC3CNc2ccc(-c3cc(F)ccc3Cl)nn2)c1 (centres unmarked) [Compound 97, 6-(2-chloro-5-fluoro-phenyl)-N-[[6-[(3-fluorophenyl)methyl]-6-azaspiro[2.5]octan-2-yl]methyl]pyridazin-3-amine] |
| 2 | 6.90 | – | – | – | Fc1ccc(Cl)c(-c2ccc(NC[C@@H]3CC34CCN(Cc3ccccc3)CC4)nn2)c1 [Compound 112, N-[[(2R)-6-benzyl-6-azaspiro[2.5]octan-2-yl]methyl]-6-(2-chloro-5-fluoro-phenyl)pyridazin-3-amine] |
